Among the data in ChEMBL document CHEMBL4715810, “Treatment of Metabolic Disorders with CB-1 Receptor Inverse Agonists” (ACS Med Chem Lett, 2016) are EC50 values, retold here.

Each structure is given as a SMILES string.

Experiment [1] addresses Cannabinoid receptor 2 (Homo sapiens, UniProt P34972). As to the kind of experiment: Inverse agonist activity at human CB2 receptor expressed in HEK293 cells assessed as forskolin-stimulated cAMP accumulation measured after 30 mins by HTRF assay. The format is functional, cell-based.
Experiment [2] addresses Cannabinoid receptor 1 (Homo sapiens, UniProt P21554). As to the kind of experiment: Inverse agonist activity at human CB1 receptor expressed in HEK293 cells assessed as forskolin-stimulated cAMP accumulation measured after 30 mins by HTRF assay. It counts as functional, cell-based. In general terms: Changes in cAMP serve as a functional read-out for many G protein-coupled receptors.

Cannabinoid receptor 2, sequence (P34972 whole entry): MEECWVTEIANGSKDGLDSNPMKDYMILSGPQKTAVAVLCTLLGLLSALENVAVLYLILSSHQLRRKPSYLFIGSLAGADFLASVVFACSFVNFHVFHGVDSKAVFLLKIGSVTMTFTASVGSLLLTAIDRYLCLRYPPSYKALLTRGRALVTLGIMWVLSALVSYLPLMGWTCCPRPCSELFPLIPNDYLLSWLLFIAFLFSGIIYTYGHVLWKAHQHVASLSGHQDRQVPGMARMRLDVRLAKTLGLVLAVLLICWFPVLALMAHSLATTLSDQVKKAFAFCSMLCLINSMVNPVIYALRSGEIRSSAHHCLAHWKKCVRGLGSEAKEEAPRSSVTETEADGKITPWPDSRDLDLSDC
Cannabinoid receptor 1, sequence (P21554 whole entry): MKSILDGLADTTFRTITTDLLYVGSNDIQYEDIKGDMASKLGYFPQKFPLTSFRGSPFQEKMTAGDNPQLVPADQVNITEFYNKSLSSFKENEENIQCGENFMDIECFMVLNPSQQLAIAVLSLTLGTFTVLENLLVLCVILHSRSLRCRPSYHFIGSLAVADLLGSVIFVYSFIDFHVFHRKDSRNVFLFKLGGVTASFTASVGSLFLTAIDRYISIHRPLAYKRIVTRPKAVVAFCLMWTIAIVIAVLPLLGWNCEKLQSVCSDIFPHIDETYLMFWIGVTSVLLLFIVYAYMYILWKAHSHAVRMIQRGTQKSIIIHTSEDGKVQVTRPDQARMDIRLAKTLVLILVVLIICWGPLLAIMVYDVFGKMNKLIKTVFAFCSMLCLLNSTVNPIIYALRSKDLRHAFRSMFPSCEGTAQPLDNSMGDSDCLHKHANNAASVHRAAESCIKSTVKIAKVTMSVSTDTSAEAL

By EC50 is commonly meant the concentration that produces a half-maximal response. For the molecule `O=C(O)c1ccccc1S(=O)(=O)N1CCC(Nc2cnnc3ccc(C(c4ccc(Cl)cc4)c4ccc(Cl)cc4)cc23)CC1`, in experiment [1], the EC50 is greater than 10 µM.

As to `O=S(=O)(N1CCC(Nc2cnnc3ccc(C(O)(c4ccc(Cl)cc4)c4ccc(Cl)cc4)cc23)CC1)C(F)(F)F`, the EC50 in experiment [1] was greater than 10 µM.

For the molecule `Clc1ccc(C(c2ccc(Cl)cc2)c2ccc3nncc(NC4CCC(Nc5ccccc5)CC4)c3c2)cc1` (centres undefined), the values for the EC50 in experiment [2] and in experiment [1] were 0.099 µM and greater than 10 µM, respectively.
